Results taken from patent US20230091225A1, “Bifunctional chimeric heterocyclic compounds for targeted degradation of androgen receptors and use thereof” (HINOVA PHARMACEUTICALS INC., priority 2019, published 2023).
Read-outs that look alike come from different tables or passages of the source.

Molecular target: T1, androgen receptor (AR) (Homo sapiens, UniProt P10275)
T1 sequence (P10275 1-920): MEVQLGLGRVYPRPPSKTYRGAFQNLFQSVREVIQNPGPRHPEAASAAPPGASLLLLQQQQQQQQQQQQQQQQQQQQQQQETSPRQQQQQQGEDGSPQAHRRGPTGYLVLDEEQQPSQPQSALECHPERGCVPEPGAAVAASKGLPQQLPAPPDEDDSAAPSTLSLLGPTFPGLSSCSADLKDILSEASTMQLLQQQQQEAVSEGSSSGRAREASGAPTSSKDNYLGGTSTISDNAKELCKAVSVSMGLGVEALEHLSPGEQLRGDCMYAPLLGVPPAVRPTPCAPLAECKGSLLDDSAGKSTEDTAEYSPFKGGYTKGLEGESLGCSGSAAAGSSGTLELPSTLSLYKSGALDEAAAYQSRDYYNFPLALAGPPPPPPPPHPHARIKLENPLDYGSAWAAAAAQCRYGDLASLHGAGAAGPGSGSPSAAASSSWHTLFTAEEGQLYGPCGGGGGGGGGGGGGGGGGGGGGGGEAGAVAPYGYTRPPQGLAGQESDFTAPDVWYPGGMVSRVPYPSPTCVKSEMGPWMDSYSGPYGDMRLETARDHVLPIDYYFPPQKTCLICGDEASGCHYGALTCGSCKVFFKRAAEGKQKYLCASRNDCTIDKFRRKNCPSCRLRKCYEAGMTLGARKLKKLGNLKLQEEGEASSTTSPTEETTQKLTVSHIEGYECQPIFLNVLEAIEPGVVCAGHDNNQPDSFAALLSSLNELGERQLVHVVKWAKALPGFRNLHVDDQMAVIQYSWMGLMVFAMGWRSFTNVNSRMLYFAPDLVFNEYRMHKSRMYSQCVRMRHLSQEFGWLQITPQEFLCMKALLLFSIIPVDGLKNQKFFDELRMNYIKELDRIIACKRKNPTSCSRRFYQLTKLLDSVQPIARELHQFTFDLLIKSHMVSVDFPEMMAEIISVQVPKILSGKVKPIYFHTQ
Assay: Degradation of androgen receptor (AR) protein in VCaP cells by ELISA
Type: cell-based
Details: for Dmax: VCaP

[1] = AR degradation, VCaP cells, 16 h, ELISA, Table 3-1, read-out: DC50
[2] = AR degradation, VCaP cells, 16 h, ELISA, Table 3-1, read-out: Dmax (%)
[3] = AR degradation, VCaP cells, 16 h, ELISA, Table 3-2, read-out: DC50
[4] = AR degradation, VCaP cells, 16 h, ELISA, Table 3-2, read-out: Dmax (%)
[5] = AR degradation, VCaP cells, 16 h, ELISA, Table 3-1

Row | DC50 [1] | Dmax [2] | SMILES | also measured
1 | 10 to 100 nM | 60 to 80% | N#Cc1ccc(O[C@H]2CC[C@H](NC(=O)c3ccc(N4CCCN(C[C@@H]5[C@H]6CN(c7cc8c(cc7F)C(=O)N(C7CCC(=O)NC7=O)C8=O)C[C@@H]56)CC4)nn3)CC2)cc1Cl (some centres unmarked) [Compound 93] | 
2 |  |  | COCCOc1cc(O[C@H]2CC[C@H](NC(=O)c3ccc(N4CCC(CN5CCC6(CC5)CN(c5ccc7c(c5)C(=O)N(C5CCC(=O)NC5=O)C7=O)C6)CC4)nn3)CC2)ccc1C#N (some centres unmarked) [Compound 155] | DC50: < 10 nM; Dmax: > 80%
3 | < 10 nM | > 80% | N#Cc1ccc(O[C@H]2CC[C@H](NC(=O)c3cnc(N4CC5(CN(CC6CCN(c7cc8c(cc7F)C(=O)N(C7CCC(=O)NC7=O)C8=O)CC6)C5)C4)cn3)CC2)cc1Cl (some centres unmarked) [Compound 125] | 
4 |  |  | N#Cc1ccc(O[C@H]2CC[C@H](NC(=O)c3ccc(N4CCC(CN5CC6(C5)CN(c5ccc7c(c5)C(=O)N(C5CCC(=O)NC5=O)C7=O)C6)CC4)nn3)CC2)cc1Cl (some centres unmarked) [Compound 121, N-((1r,4r)-4-(3-chloro-4-cyanophenoxy)cyclohexyl)-6-(4-((6-(2-(2,6-dioxopiperidin-3-yl)-1,3-dioxoisoindolin-5-yl)-2,6-diazaspiro[3.3]heptan-2-yl)methyl)piperidin-1-yl)pyridazine-3-amide] | DC50: < 10 nM; Dmax: > 80%
5 |  |  | N#Cc1ccc(O[C@H]2CC[C@H](NC(=O)c3nnc(N4CC5(CCN(CC6CCN(c7cc8c(cc7F)C(=O)N(C7CCC(=O)NC7=O)C8=O)CC6)CC5)C4)s3)CC2)cc1Cl (some centres unmarked) [Compound 107, N-((1r,4r)-4-(3-chloro-4-cyanophenoxy)cyclohexyl)-5-(7-((1-(2-(2,6-dioxopiperidin-3-yl)-6-fluoro-1,3-dioxoisoindolin-5-yl)piperidine-4-yl)methyl)-2,7-diazaspiro[3.5]nonan-2-yl)-1,3,4-thiadiazole-2-carboxamide] | DC50 [3]: < 10 nM; Dmax [4]: > 80%
6 | 100 to 300 nM | 40 to 60% | N#Cc1ccc(O[C@H]2CC[C@H](NC(=O)c3ncnn3[C@H]3CC[C@H](CN4CCC5(CC4)CN(c4cc6c(cc4F)C(=O)N(C4CCC(=O)NC4=O)C6=O)C5)CC3)CC2)cc1Cl (some centres unmarked) [Compound 87] | 
7 | < 10 nM | > 80% | N#Cc1ccc(O[C@H]2CC[C@H](NC(=O)c3cnc(N4CC5(CCN(C6CCN(c7cc8c(cc7F)C(=O)N(C7CCC(=O)NC7=O)C8=O)CC6)CC5)C4)cn3)CC2)cc1Cl (some centres unmarked) [Compound 242, N-((1r,4r)-4-(3-chloro-4-cyanophenoxy)cyclohexyl)-5-(7-(1-(2-(2,6-dioxopiperidin-3-yl)-6-fluoro-1,3-dioxoisoindolin-5-yl)piperidine-4-yl)-2,7-diazaspiro[3.5]nonan-2-yl)pyrazine-2-carboxamide] | 
8 | 10 to 100 nM |  | CC1(C)[C@H](Oc2ccc(C#N)c(Cl)c2)C(C)(C)[C@H]1N1Cc2nc(C#CC3CCC(N4CC5(CCN(c6cc7c(cc6F)C(=O)N(C6CCC(=O)NC6=O)C7=O)C5)C4)CC3)ccc2C1=O (some centres unmarked) [Compound 371] | Dmax (%) [5]: ++++ (>80%)
9 |  |  | N#Cc1ccc(O[C@H]2CC[C@H](NC(=O)c3ncc(N4CCC(CN5CCC6(CC5)CN(c5cc7c(cc5F)C(=O)N(C5CCC(=O)NC5=O)C7=O)C6)CC4)cn3)CC2)cc1Cl (some centres unmarked) [Compound 148] | DC50: > 300 nM; Dmax: 40 to 60%
10 |  |  | Cc1ncsc1-c1ccc([C@H](C)NC(=O)[C@@H]2C[C@@H](O)CN2C(=O)[C@@H](NC(=O)COCCCCC#Cc2ccc3c(n2)CN([C@H]2C(C)(C)[C@H](Oc4ccc(C#N)c(Cl)c4)C2(C)C)C3=O)C(C)(C)C)cc1 [Compound 36, (2S,4R)-1-((S)-2-(2-((6-(6-((1r,3r)-3-(3-chloro-4-cyanophenoxy)-2,2,4,4-tetramethylcyclobutyl)-5-oxo-6,7-dihydro-5H-pyrrolo[3,4-b]pyridin-2-yl)hex-5-yn-1-yl)oxy)acetylamino)-3,3-dimethylbutyryl)-4-hydroxy-N-((S)-1-(4-(4-methylthiazol-5-yl)phenyl)ethyl)pyrrolidine-2-carboxamide] | inhibition at 0.1 µM (percentage of degraded AR at 100 nM, VCaP cells, 16 h, ELISA, read-out: % degradation): 25 to 49%
11 |  |  | N#Cc1ccc(O[C@H]2CC[C@H](NC(=O)c3ccc(N4CCC(CN5CCC6(CC5)CN(c5cc7c(cc5F)C(=O)N(C5CCC(=O)NC5=O)C7=O)C6)CC4)nn3)CC2)cc1C(F)(F)F (some centres unmarked) [Compound 152] | DC50: 10 to 100 nM; Dmax: > 80%
12 |  |  | CC1(C)[C@H](Oc2ccc(C#N)c(Cl)c2)C(C)(C)[C@H]1N1Cc2nc(N3CCC(CN4CCN(c5ccc6c(c5)C(=O)N(C5CCC(=O)NC5=O)C6=O)CC4)CC3)cnc2C1=O (some centres unmarked) [Compound 385] | DC50 [3]: 100 to 300 nM; Dmax [4]: 60 to 80%
13 | < 10 nM | 60 to 80% | CC1(C)[C@H](Oc2ccc(C#N)c(Cl)c2)C(C)(C)[C@H]1N1Cc2nc(N3CCC(CN4CCN(c5cc6c(cc5F)C(=O)N(C5CCC(=O)NC5=O)C6=O)CC4)CC3)cnc2C1=O (some centres unmarked) [Compound 384] | 
14 |  |  | N#Cc1ccc(O[C@H]2CC[C@H](NC(=O)c3cnc(N4CCC(CN5CCC6(CC5)CN(c5ccc7c(c5)C(=O)N(C5CCC(=O)NC5=O)C7=O)C6)CC4)nn3)CC2)cc1Cl (some centres unmarked) [Compound 279, N-((1r,4r)-4-(3-chloro-4-cyanophenoxy)cyclohexyl)-3-(4-((2-(2-(2,6-dioxopiperidin-3-yl)-1,3-dioxoisoindolin-5-yl)-2,7-diazaspiro[3.5]nonane-7-yl)methyl)piperidin-1-yl)-1,2,4-triazine-6-formamide] | DC50: < 10 nM; Dmax: > 80%
15 |  |  | CC1(C)[C@H](Oc2ccc(C#N)c(Cl)c2)C(C)(C)[C@H]1N1Cc2nc(C#CC3CCC(N4CC5CC4CN5c4ccc5c(c4)C(=O)N(C4CCC(=O)NC4=O)C5=O)CC3)cnc2C1=O (some centres unmarked) [Compound 389, 2-Chloro-4-((1r,3r)-3-(2-((4-(5-(2-(2,6-dioxopiperidin-3-yl)-1,3-dioxoisoindolin-5-yl)-2,5-diazabicyclo[2.2.1]heptan-2-yl)cyclohexyl)ethynyl)-5-oxo-5,7-dihydro-pyrrolo[3,4-b]pyrazine-26-yl)-2,2,4,4-tetramethylcyclobutoxy) benzonitrile] | DC50 [3]: > 300 nM; Dmax [4]: < 40%
16 | > 300 nM | 40 to 60% | CC1(C)[C@H](Oc2ccc(C#N)c(Cl)c2)C(C)(C)[C@H]1N1Cc2nc(C#CC3CCC(N4CC5CC4CN5c4cc5c(cc4F)C(=O)N(C4CCC(=O)NC4=O)C5=O)CC3)ccc2C1=O (some centres unmarked) [Compound 343] | 

Row | SMILES | DC50 [1] | Dmax [2] | also measured
17 | CC1(C)[C@H](Oc2ccc(C#N)c(Cl)c2)C(C)(C)[C@H]1N1Cc2nc(C#CC3CCC(N4CC5(CCN(c6ccc7c(c6)C(=O)N(C6CCC(=O)NC6=O)C7=O)C5)C4)CC3)ccc2C1=O (some centres unmarked) [Compound 368, 2-Chloro-4-((1r,3r)-3-(2-((4-(6-(2-(2,6-dioxopiperidin-3-yl)-1,3-dioxoisoindolin-5-yl)-2,6-diazaspiro[3.4]octane-2-yl)cyclohexyl)ethynyl)-5-oxo-5,7-dihydro-pyrrolo[3,4-b]pyridin-6-yl)-2,2,4,4-tetramethylcyclobutoxy) benzonitrile] | 100 to 300 nM | 40 to 60% | 
18 | N#Cc1ccc(O[C@H]2CC[C@H](NC(=O)c3ncc(N4CCC(CN5CCC6(CC5)CN(c5ccc7c(c5)C(=O)N(C5CCC(=O)NC5=O)C7=O)C6)CC4)cn3)CC2)cc1Cl (some centres unmarked) [Compound 135] | > 300 nM | < 40% | 
19 | CC1(C)[C@H](Oc2ccc(C#N)c(Cl)c2)C(C)(C)[C@H]1N1Cc2nc(C#CC3CCC(N4CCC5(CCN(c6cc7c(cc6F)C(=O)N(C6CCC(=O)NC6=O)C7=O)C5)C4)CC3)ccc2C1=O (some centres unmarked) [Compound 366, 2-Chloro-4-((1r,3r)-3-(2-((4-(7-(2-(2,6-dioxopiperidin-3-yl)-6-fluoro-1,3-dioxoisoindolin-5-yl)-2,7-diazaspiro[4.4]nonan-2-yl)cyclohexyl)ethynyl)-5-oxo-5,7-dihydro-6H-pyrrolo[3,4-b]pyridin-6-yl)-2,2,4,4-tetramethylcyclobutoxy) benzonitrile] | < 10 nM |  | Dmax (%) [5]: ++++ (>80%)
20 | N#Cc1ccc(O[C@H]2CC[C@H](NC(=O)c3cnn([C@H]4CC[C@H](CN5CCC6(CC5)CN(c5cc7c(cc5F)C(=O)N(C5CCC(=O)NC5=O)C7=O)C6)CC4)c3)CC2)cc1Cl (some centres unmarked) [Compound 246] | 10 to 100 nM |  | Dmax: 60 to 80%
21 | CC1(C)[C@H](Oc2ccc(C#N)c(Cl)c2)C(C)(C)[C@H]1N1Cc2nc(C#CC3CC(N4CC5CN(c6ccc7c(c6)C(=O)N(C6CCC(=O)NC6=O)C7=O)CC5C4)C3)ccc2C1=O (some centres unmarked) [Compound 358, 2-chloro-4-((1r,3r)-3-(2-((3-(5-(2-(2,6-dioxopiperidin-3-yl)-1,3-dioxoisoindolin-5-yl)hexahydropyrrolo[3,4-c]pyrrol-2(1H)-yl)cyclobutyl)ethynyl)-5-oxo-5,7-dihydro-6H-pyrrolo[3,4-b]pyridin-6-yl)-2,2,4,4-tetramethylcyclobutoxy)benzonitrile] | 10 to 100 nM | 60 to 80% | 
